Test systems include Bacillus cereus; Enterobacter cloacae; Enterococcus faecalis; Escherichia coli; Leuconostoc lactis; Listeria innocua; Micrococcus luteus; Pasteurella multocida; Pseudomonas aeruginosa; Streptococcus uberis; Bacillus subtilis.
Test in all cases: ≥ marks a high value that may be exact or a test limit, other limits are often not marked, values filed in µg/mL are converted to µM
The subject of test [1] is Staphylococcus aureus NCTC 10788.
Test [2] relates to Staphylococcus aureus ATCC 25923.
The subject of test [3] is Staphylococcus aureus ATCC 29213.
The test system of test [4] is Staphylococcus epidermidis.
The subject of test [5] is Staphylococcus aureus ATCC BAA-1556.
Test [6] deals with Clavibacter michiganensis subsp. michiganensis DSM 46294.
Test [7] deals with Pectobacterium carotovorum subsp. carotovorum DSM 30168.
For test [8], the system named is Pseudomonas corrugata DSM 7228.
Test [9] concerns Pseudomonas syringae pv. syringae DSM 10604.
Test [10] relates to Pseudomonas syringae pv. tomato DC3000.
Test [11] deals with Xanthomonas vesicatoria DSM 50861.
Test [12] has as its system Candida albicans ATCC 10231.
The subject of test [13] is Enterococcus faecalis ATCC 29212.
Test [14] concerns Escherichia coli ATCC 25922.
Test [15] concerns Pseudomonas aeruginosa ATCC 15422.
Test [16] relates to Staphylococcus epidermidis KCTC 1917.
In test [17] the test system is Staphylococcus aureus USA 100.
Test [18] concerns Candida albicans ATCC 90028.
The subject of test [19] is Pseudomonas aeruginosa ATCC 9027.
Test [20] has as its system Staphylococcus aureus USA 300.
The subject of test [21] is Klebsiella pneumoniae ATCC 13883.
Test [22] relates to Pseudomonas aeruginosa ATCC 27853.
Test [23] relates to Salmonella enterica subsp. enterica serovar Typhimurium ATCC 14028.
Test [24] concerns Streptococcus pyogenes ATCC 19615.

In brackets after ≈: the same amount, converted by molar mass. Several values for one entry are separate records, joined by “and”; a condition that tells them apart may be missing. Equal entries are not always repeated.

These results are taken from DBAASP.

A word on the MIC: it is the lowest concentration found to suppress growth. A low value points to a more susceptible organism.

`CC[C@H](C)[C@H](NC(=O)[C@H](CC(C)C)NC(=O)CNC(=O)[C@H](CC(C)C)NC(=O)[C@@H](N)Cc1ccccc1)C(=O)NCC(=O)N[C@@H](CO)C(=O)N[C@@H](CC(C)C)C(=O)N[C@@H](CC(C)C)C(N)=O` [FLGLIGSLL] showed a minimum inhibitory concentration (MIC) in test [1] of no less than 137 µM.
`CC[C@H](C)[C@H](NC(=O)[C@@H](NC(=O)[C@@H]1CCCN1C(=O)[C@@H](NC(=O)[C@@H](NC(=O)[C@H](Cc1cnc[nH]1)NC(=O)[C@@H]1CCCN1C(=O)[C@H](CC(C)C)NC(=O)[C@H](CC(C)C)NC(=O)[C@H](Cc1cnc[nH]1)NC(=O)[C@H](CCCCN)NC(=O)[C@H](C)NC(=O)[C@@H](NC(=O)[C@H](CO)NC(=O)CNC(=O)[C@H](CC(C)C)NC(=O)[C@@H](NC(=O)[C@H](CO)NC(=O)[C@H](Cc1ccccc1)NC(=O)[C@H](CC(C)C)NC(=O)CN)C(C)C)C(C)C)C(C)C)C(C)C)C(C)C)C(=O)N[C@@H](C)C(=O)N[C@@H](CCC(=O)O)C(=O)N[C@@H](CCCCN)C(=O)N[C@@H](CC(C)C)C(N)=O` [GLFSVLGSVAKHLLPHVVPVIAEKL]: the MIC is 19.1 µM (≈ 50 µg/mL) against Bacillus cereus; no less than 38.1 µM in the test with Enterobacter cloacae; no less than 38.1 µM in the test on Enterococcus faecalis; greater than 38.1 µM against Escherichia coli; 9.53 µM (≈ 25 µg/mL) with Leuconostoc lactis; 4.57 µM (≈ 12 µg/mL) in the test with Listeria innocua. Also, the minimum inhibitory concentration (MIC) was 4.57 µM (≈ 12 µg/mL) in the test with Micrococcus luteus; 19.1 µM (≈ 50 µg/mL) with Pasteurella multocida; greater than 38.1 µM in the test on Pseudomonas aeruginosa; 4.57 µM (≈ 12 µg/mL) in test [2]; 4.57 µM (≈ 12 µg/mL) in test [3]; 9.53 µM (≈ 25 µg/mL) in test [4]. In the test on Streptococcus uberis, this compound had a minimum inhibitory concentration (MIC) of 9.53 µM (≈ 25 µg/mL).
In [5], `CC(C)C[C@H](NC(=O)[C@H](CC(C)C)NC(=O)[C@H](CCCCN)NC(=O)[C@@H](N)CCCCN)C(=O)N[C@@H](CCCCN)C(=O)N[C@@H](Cc1c[nH]c2ccccc12)C(N)=O` [KKLLKW] had an MIC of no less than 100 µM.
Turning to `CC[C@H](C)[C@H](NC(=O)[C@H](C)NC(=O)[C@H](CCCCN)NC(=O)[C@H](CCCN=C(N)N)NC(=O)[C@H](CCCN=C(N)N)NC(=O)[C@@H](N)CCCCN)C(=O)N[C@@H](CCCCN)C(=O)N[C@H](C(=O)N[C@@H](CC(C)C)C(=O)N[C@@H](CCCCN)C(=O)N[C@@H](CC(C)C)C(=O)N[C@H](C(=O)N[C@@H](C)C(=O)N[C@@H](CCCCN)C(=O)N[C@@H](CC(C)C)C(=O)N[C@H](C(=O)N[C@@H](CCCN=C(N)N)C(=O)N[C@@H](CCCCN)C(=O)N[C@@H](CCCCN)C(=O)N[C@@H](CCCN=C(N)N)C(N)=O)[C@@H](C)CC)[C@@H](C)CC)[C@@H](C)CC` [KRRKAIKILKLIAKLIRKKR], the minimum inhibitory concentration (MIC) in test [6] turned out to be 0.0404 µM (≈ 0.0999 µg/mL); in test [7], 4.04 µM (≈ 10 µg/mL); in test [8], 0.101 µM (≈ 0.25 µg/mL); in [9], 4.04 µM (≈ 10 µg/mL); in [10] it was 4.04 µM (≈ 10 µg/mL); in [11] it was 0.0404 µM (≈ 0.0999 µg/mL).
In the case of `CC(C)C[C@H](NC(=O)CNC(=O)[C@H](Cc1ccc(O)cc1)NC(=O)[C@H](Cc1cnc[nH]1)NC(=O)[C@@H]1CCCN1C(=O)[C@H](CC(C)C)NC(=O)[C@H](CCC(=O)O)NC(=O)[C@H](Cc1ccccc1)NC(=O)[C@H](Cc1cnc[nH]1)NC(=O)[C@H](CO)NC(=O)[C@@H](N)CCCCN)C(=O)O` [KSHFELPHYGL], the MIC in test [12] is greater than 500 µM; in [13] it was 468 µM and 458 µM and 442 µM; in test [14], greater than 500 µM; in test [15] it was no less than 500 µM; in [16], no less than 315 µM.
The compound `NCCCC[C@H](N)C(=O)N[C@@H](Cc1c[nH]c2ccccc12)C(=O)N[C@@H](CCCN=C(N)N)C(=O)N[C@@H](CCCN=C(N)N)C(=O)N[C@@H](Cc1c[nH]c2ccccc12)C(N)=O` [KWRRW] displayed an MIC in test [5] of no less than 100 µM.
Still for that read-out and setting: the value for `CC(C)C[C@H](NC(=O)[C@H](CC(C)C)NC(=O)[C@H](CCCCN)NC(=O)[C@H](CC(C)C)NC(=O)[C@H](CC(C)C)NC(=O)[C@H](Cc1c[nH]c2ccccc12)NC(=O)[C@H](CCCCN)NC(=O)[C@H](CC(C)C)NC(=O)[C@@H](N)CC(C)C)C(N)=O` [LLKWLLKLL] was 3.13 µM (≈ 3.56 µg/mL); that for `CC(C)C[C@H](NC(=O)[C@H](CC(C)C)NC(=O)[C@H](CCCCN)NC(=O)[C@H](CC(C)C)NC(=O)[C@H](CC(C)C)NC(=O)[C@H](CCCCN)NC(=O)[C@H](CC(C)C)NC(=O)[C@H](CC(C)C)NC(=O)[C@@H](N)CC(C)C)C(N)=O` [LLLKLLKLL] was 3.13 µM (≈ 3.34 µg/mL).
As to `NC(=O)CC[C@H](NC(=O)[C@H](CCCN=C(N)N)NC(=O)[C@@H](N)CCC(N)=O)C(=O)N[C@@H](CCCN=C(N)N)C(N)=O` [QRQR], the MIC in test [17] was no less than 100 µM.
Take `CC[C@H](C)[C@H](NC(=O)[C@H](CCCCN)NC(=O)[C@H](Cc1ccccc1)NC(=O)[C@H](CCCCN)NC(=O)[C@H](CCCCN)NC(=O)[C@H](CCCCN)NC(=O)[C@@H](N)CCCN=C(N)N)C(=O)N[C@@H](Cc1ccccc1)C(=O)N[C@@H](CCCCN)C(=O)N[C@@H](CCCN=C(N)N)C(=O)N[C@@H](CC(C)C)C(=O)N[C@@H](Cc1ccccc1)C(N)=O` [RKKKFKIFKRLF]: the minimal inhibitory concentration (MIC) in [6] was 0.61 µM (≈ 0.999 µg/mL); in test [7], 6.1 µM (≈ 9.99 µg/mL); in test [8] it was 0.305 µM (≈ 0.5 µg/mL); in test [9] it was 0.061 µM (≈ 0.0999 µg/mL); in [10], 0.61 µM (≈ 0.999 µg/mL); in test [11] it was 0.61 µM (≈ 0.999 µg/mL).
Consider `CSCC[C@H](NC(=O)[C@H](Cc1cnc[nH]1)NC(=O)[C@H](CCCCN)NC(=O)[C@H](CC(C)C)NC(=O)[C@H](CCCCN)NC(=O)[C@@H](N)CCCN=C(N)N)C(=O)N[C@@H](CCCN=C(N)N)C(=O)N[C@@H](Cc1ccccc1)C(=O)O` [RKLKHMRF], for which the minimum inhibitory concentration (MIC) in test [18] was no less than 100 µM; in test [19], greater than 100 µM; in test [17], no less than 100 µM; in test [20], no less than 100 µM.
Turning to `CC(C)C[C@H](NC(=O)[C@H](CO)NC(=O)[C@H](CCCN=C(N)N)NC(=O)[C@H](CCCCN)NC(=O)[C@@H](NC(=O)[C@@H](NC(=O)CNC(=O)[C@H](CCCN=C(N)N)NC(=O)[C@H](Cc1cnc[nH]1)NC(=O)[C@H](Cc1c[nH]c2ccccc12)NC(=O)[C@H](Cc1ccccc1)NC(=O)[C@H](Cc1cnc[nH]1)NC(=O)[C@H](Cc1ccc(O)cc1)NC(=O)[C@@H](N)Cc1ccc(O)cc1)C(C)C)[C@@H](C)O)C(=O)O` [YYHFWHRGVTKRSL], the minimum inhibitory concentration (MIC) in the test with Bacillus subtilis is no less than 60 µM; in test [13], 70 µM (≈ 130 µg/mL); against Escherichia coli it was 30 µM (≈ 55.5 µg/mL); in [21], no less than 70 µM; in [22], 60 µM (≈ 111 µg/mL); in test [23], 80 µM (≈ 148 µg/mL). Further, the MIC was 80 µM (≈ 148 µg/mL) in test [2] and no less than 100 µM in test [24].
